Entries after “also recorded” stand apart in the source; their conditions may differ. Where a name gives a salt, the structure may show the parent alone.
Tests used:
[1] = tested on: Zebrafish (Danio rerio); assay: Open tank test in zebrafish exposed to MK-801; type: in vivo; conditions: for total distance in the open tank test: FIG. 7; for absolute turn angle in the open tank test: FIG. 8; for number of clockwise rotations in the open tank test: FIG. 9; for time spent immobile in the open tank test: for pretreatments: effect on the MK-801-induced increase, FIG. 10; for Open Tank Test: Absolute turn angle / Open Tank Test: Time immobile / Open Tank Test: Clockwise rotations / Open Tank Test: Total distance: immediately after social interaction test, 10 min; for Open Tank Test: Clockwise rotations / Open Tank Test: Total distance: bracket = kind of effect and concentration (mg/L)
Protocol: (§1) Here, the ability of alstonine salts to reverse schizophrenia-like symptoms produced by MK-801 in zebrafish was evaluated. The atypical antipsychotic olanzapine was used as a comparison.
(§2) Experiments were performed using male and female (50:50 ratio) short-fin wild-type zebrafish (4-month-old, 300-500 mg). Adult animals were obtained from a local commercial supplier (Delphis, RS, Brazil). The animals were maintained at Instituto de Ciências Básicas de Saúde in a light/dark cycle of 14/10 h with lights on at 7:00 a.m. for at least two weeks before tests. Fish were kept in 40-L (30×46×33 cm) unenriched glass tanks with non-chlorinated water at a maximum density of five animals per liter. Tank water satisfied the controlled conditions required for zebrafish (26±2° C.; pH 7.0±0.3; dissolved oxygen at 7.0±0.4 mg/L; total ammonia at <0.01 mg/L; total hardness at 5.8 mg/L; alkalinity at 22 mg/L CaCO3; conductivity of 1,500-1,600 μS/cm) and was constantly filtered by mechanical, biological, and chemical filtration systems. Food was provided twice a day as commercial flake food (Poytara®, SP, Brazil) plus brine shrimp (Artemia salina). The sex of the animals was confirmed after euthanasia by dissecting and analyzing the gonads. For all experiments, no sex effects were observed, so data was pooled together. Animals were euthanized by hypothermic shock according to the AVMA Guidelines for the Euthanasia of Animals (Leary and Johnson, 2020).
(§3) Olanzapine and MK-801 (dizocilpine) were purchased from Sigma-Aldrich (St. Louis, MO, USA). Alstonine hydrochloride and alstonine hydrobromide were prepared as described herein. MK-801 and either olanzapine or alstonine salt were dissolved in distilled water; alstonine salt stock solutions were sonicated in an ultrasonic bath. MK-801 solutions were freshly prepared, while alstonine salt stock solutions were kept refrigerated for up to five days. Exposure solutions were renovated halfway through the experiment, with a maximum of four fish exposed to the same solution.
(§4) Different sets of animals were used for each experiment, totaling 240 zebrafish in the study (plus 80 zebrafish serving as stimulus animals). Animals were individually exposed to water, olanzapine, or alstonine salt solutions at 2.5, 5, or 10 mg/L in 500-mL beakers containing 200-mL solution for 20 min. These concentrations were extrapolated from mice studies. Fish were then transferred to another beaker containing either water or MK-801 at 5 μM and remained there for another 20 minutes.
The protocol for the open tank test followed the method described by Benvenutti et al. (2021) Journal of Neuroscience Research 00: 1-16. Immediately after the social interaction test, animals were placed in the center of the open tank arena and recorded for 10 min. The apparatus consisted of a white circular arena (24 cm in diameter and 8 cm in height, 2 cm water level). The apparatus format and the acquisition of videos from the top view allows the evaluation of locomotor parameters related to stereotypic behavior (circular movements and absolute turn angle). The water was changed between every animal. The following outcomes were automatically scored using ANY-Maze software (Stoelting Co., Wood Dale, IL, USA): total distance traveled, absolute turn angle, number of clockwise rotations, and immobility time.
GraphPad Prism 8 (version 8.4.3) for macOS was used to run the statistical analyses and plot the results. No animals were excluded, except for two data points in the open tank test due to a failure in video acquisition. Data were analyzed by two-way ANOVA, with alstonine salt or olanzapine pretreatment (Drug_1) and MK-801 treatment (Drug_2) as the main factors. Bonferroni post hoc test was applied as appropriate. The significant level was set at p<0.05. Data were expressed as mean standard deviation.

[2] = tested on: Zebrafish (Danio rerio); assay: Social interaction test in zebrafish exposed to MK-801; type: in vivo; conditions: for Social Interaction Test: Time immobile: 20 min drug pre-exposure, then 20 min MK-801 5 μM or water; for total distance traveled in the social interaction test / time spent in the interaction zone (social interaction), effect of the substance itself: main effect; for total distance traveled in the social interaction test: FIG. 3; for time spent in the interaction zone (social interaction), effect of the substance itself: two-way ANOVA, Bonferroni post hoc; for number of crossings in the social interaction test: main or interaction effect with MK-801, FIG. 4; for pre-exposure concentration at which MK-801 increased the number of crossings (Bonferroni post hoc): social interaction test, FIG. 4
Protocol: as §1, §2, §3, §4
The protocol for the social interaction test in zebrafish followed the method described by Benvenutti et al. (2021) Journal of Neuroscience Research 00: 1-16. After exposure, animals were placed for 7 min in a tank (30×10×15 cm) flanked by two identical tanks (15×10×13 cm) either empty (neutral stimulus) or containing 10 unknown zebrafish (social stimulus). All three tanks were filled with water in standard conditions at a level of 10 cm. The position of the social stimulus (right or left) was counterbalanced throughout the tests. The water in the test tanks was changed between every animal. To assess social behavior, the test apparatus was virtually divided into three vertical zones (interaction, middle, and neutral). Animals were habituated to the apparatus for 2 min and then analyzed for the last 5 min. Videos were recorded from the front view and time spent in the interaction zone was quantified as a proxy for social interaction. Additionally, total distance traveled, number of crossings between the vertical zones of the tank and immobility time were quantified as secondary locomotor parameters. All outcomes were automatically scored using ANY-Maze software (Stoelting Co., Wood Dale, IL, USA).
GraphPad Prism 8 (version 8.4.3) for macOS was used to run the statistical analyses and plot the results. No animals were excluded, except for two data points in the open tank test due to a failure in video acquisition. […]

[3] = tested on: rodents; conditions: acute administration; literature data; cited from earlier work
[4] = tested on: mice; conditions: cited from earlier work
[5] = tested on: dopamine (DA) uptake; conditions: mouse striatal synaptosomes (Linck et al. 2015); cited from earlier work
[6] = tested on: D1, D2, and 5-HT2A receptors; conditions: cortex membranes; preliminary binding studies (Costa-Campos et al., 1998); cited from earlier work

SMILES	total distance in the open tank test [1]	absolute turn angle in the open tank test [1]	number of clockwise rotations in the open tank test [1]	time spent immobile in the open tank test [1]	Open Tank Test: Absolute turn angle [1]	Open Tank Test: Time immobile [1]	Open Tank Test: Clockwise rotations [1]	Open Tank Test: Total distance [1]	Social Interaction Test: Time immobile [2]	total distance traveled in the social interaction test [2]	number of crossings in the social interaction test [2]	pre-exposure concentration at which MK-801 increased the number of crossings (Bonferroni post hoc) [2] [mg/L]	other results
COC(=O)C1=CO[C@@H](C)[C@@H]2Cn3ccc4c5ccccc5nc-4c3C[C@H]12 [alstonine hydrochloride]	did not have an effect	no main effects for Drug_1 or interaction effects were observed	did not have a main effect or an interaction effect	did not have an effect	N.E.^1	N.E.^1	N.E.^1	N.E.^1	N.E.^1	had no such effect	significant interaction	5	time spent in the interaction zone (social interaction), effect of the substance itself ([2]; FIG. 2, hydrochloride): animals exposed to 5 and 10 mg/L alstonine hydrochloride spent less time in the interaction zone as compared to controls; also recorded: decreased the interaction time
Cc1cc2c(s1)Nc1ccccc1N=C2N1CCN(C)CC1 [olanzapine, reference compound]					N.E.^1				N.E.^1				
CCN1CCCC1CNC(=O)c1cc(S(N)(=O)=O)ccc1OC (stereo not shown) [Sulpiride]													prevention of social interaction deficits caused by MK-801 [3]: acutely prevents the deficits caused by MK-801
COC(=O)C1=CO[C@@H](C)[C@@H]2Cn3ccc4c5ccccc5nc-4c3C[C@H]12 [alstonine]													antipsychotic profile in mice models ([4]; 0.5-1.0 mg/kg ip): antipsychotic properties; time to significant effects after intraperitoneal administration ([4]; mice, ip): ≤ 30 min; effect on DA uptake [5]: increasing DA uptake; effect on [3H]SCH23390 or [3H]Spiperone binding [6]: does not affect
C[C@]12N[C@H](Cc3ccccc31)c1ccccc12 [MK-801, dizocilpine, reference compound]	decreased the total distance relative to controls	decreased the absolute turn angle relative to controls	decreased the number of clockwise rotations relative to controls	increased the time spent immobile	↓	↑	↓	↓	=	increased the total distance traveled relative to controls	had no effect on the number of crossings		Social Interaction Test: Crossings ([2]; Ctrl vs. MK within pretreatment level, bracket = concentration (mg/L)): =; time spent immobile in the social interaction test ([2]; FIG. 5): tended to decrease the time spent immobile; time spent in the interaction zone (social interaction), effect of the substance itself ([2]; FIG. 2): decreased social preference
COC(=O)C1=CO[C@@H](C)[C@H]2C[n+]3ccc4c([nH]c5ccccc54)c3C[C@H]12.[Br-] [alstonine hydrobromide]	did not have an effect	no main effects for Drug_1 or interaction effects were observed	did not have a main effect or an interaction effect	did not have an effect	N.E.^1	N.E.^1	N.E.^1	N.E.^1		had no such effect	significant interaction	10	time spent immobile in the social interaction test ([2]; FIG. 5, hydrobromide): significant interaction; time spent immobile in the social interaction test ([2]; FIG. 5, listed as alstonine bromide, hydrobromide): reduced the effects of MK-801 at the highest concentrations tested; time spent in the interaction zone (social interaction), effect of the substance itself ([2]; FIG. 2, listed as alstonine bromide, hydrobromide): none of the concentrations decreased social isolation; also recorded: did not; prevention of the MK-801-induced decrease of social interaction time ([2]; pretreatment 20 min before MK-801 5 μM, FIG. 2): did not prevent the effects of MK-801

— patent publication US20240208988A1, “Alstonine Derivatives and Salts Thereof” (priority 2021, published 2024)
